Experimental findings from US10975056B2 (GlaxoSmithKline Intellectual Property Development Limited, priority 2016, dated 2021) are described below.

One experiment addresses DNMT1 (Homo sapiens, UniProt P26358). Description: DNMT1 biochemical activity, breaklight assay and/or SPA assay.
Experiment [1] has as its system erythroid progenitor cells (EPCs). Description: Fetal hemoglobin (HbF) ELISA in day 7 erythroid progenitor cells.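 On all read-outs here: for fetal hemoglobin induction normalized to vehicle-treated cells.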 The format is cell-based, human. To be noted: HbF ELISA, day 7 EPCs, 5 days; for EC50: Homo sapiens, Erythroid progenitor cell, read-out: EPC ELISA (pEC50 category) (converted). The method in brief: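 Read-out was OD450 from an HRP/TMB sandwich ELISA on lysates, normalized to DMSO-only control wells. Thawed day 7 EPCs from human marrow CD34+ cells had been treated for 5 days at 37° C with Compound A, 22 concentrations […].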

The mark [2] stands for this setting: binned activity in either the breaklight or the SPA assay.
The mark [3] stands for this setting: binned activity in either the breaklight or the SPA assay, read-out: DNMT1 BioChemical (pIC50 category) (converted).
[4] abbreviates: breaklight assay and/or SPA assay, repeated experimental runs, read-out: average pIC50 against DNMT1 (converted).

SMILES strings stand for the structures. Several values for one entry are separate records, joined by “and”; a condition that tells them apart may be missing. Equal entries are not always repeated. Where two headings read alike, the source gives them in different places.

Chain of DNMT1 (P26358 whole entry, looked up): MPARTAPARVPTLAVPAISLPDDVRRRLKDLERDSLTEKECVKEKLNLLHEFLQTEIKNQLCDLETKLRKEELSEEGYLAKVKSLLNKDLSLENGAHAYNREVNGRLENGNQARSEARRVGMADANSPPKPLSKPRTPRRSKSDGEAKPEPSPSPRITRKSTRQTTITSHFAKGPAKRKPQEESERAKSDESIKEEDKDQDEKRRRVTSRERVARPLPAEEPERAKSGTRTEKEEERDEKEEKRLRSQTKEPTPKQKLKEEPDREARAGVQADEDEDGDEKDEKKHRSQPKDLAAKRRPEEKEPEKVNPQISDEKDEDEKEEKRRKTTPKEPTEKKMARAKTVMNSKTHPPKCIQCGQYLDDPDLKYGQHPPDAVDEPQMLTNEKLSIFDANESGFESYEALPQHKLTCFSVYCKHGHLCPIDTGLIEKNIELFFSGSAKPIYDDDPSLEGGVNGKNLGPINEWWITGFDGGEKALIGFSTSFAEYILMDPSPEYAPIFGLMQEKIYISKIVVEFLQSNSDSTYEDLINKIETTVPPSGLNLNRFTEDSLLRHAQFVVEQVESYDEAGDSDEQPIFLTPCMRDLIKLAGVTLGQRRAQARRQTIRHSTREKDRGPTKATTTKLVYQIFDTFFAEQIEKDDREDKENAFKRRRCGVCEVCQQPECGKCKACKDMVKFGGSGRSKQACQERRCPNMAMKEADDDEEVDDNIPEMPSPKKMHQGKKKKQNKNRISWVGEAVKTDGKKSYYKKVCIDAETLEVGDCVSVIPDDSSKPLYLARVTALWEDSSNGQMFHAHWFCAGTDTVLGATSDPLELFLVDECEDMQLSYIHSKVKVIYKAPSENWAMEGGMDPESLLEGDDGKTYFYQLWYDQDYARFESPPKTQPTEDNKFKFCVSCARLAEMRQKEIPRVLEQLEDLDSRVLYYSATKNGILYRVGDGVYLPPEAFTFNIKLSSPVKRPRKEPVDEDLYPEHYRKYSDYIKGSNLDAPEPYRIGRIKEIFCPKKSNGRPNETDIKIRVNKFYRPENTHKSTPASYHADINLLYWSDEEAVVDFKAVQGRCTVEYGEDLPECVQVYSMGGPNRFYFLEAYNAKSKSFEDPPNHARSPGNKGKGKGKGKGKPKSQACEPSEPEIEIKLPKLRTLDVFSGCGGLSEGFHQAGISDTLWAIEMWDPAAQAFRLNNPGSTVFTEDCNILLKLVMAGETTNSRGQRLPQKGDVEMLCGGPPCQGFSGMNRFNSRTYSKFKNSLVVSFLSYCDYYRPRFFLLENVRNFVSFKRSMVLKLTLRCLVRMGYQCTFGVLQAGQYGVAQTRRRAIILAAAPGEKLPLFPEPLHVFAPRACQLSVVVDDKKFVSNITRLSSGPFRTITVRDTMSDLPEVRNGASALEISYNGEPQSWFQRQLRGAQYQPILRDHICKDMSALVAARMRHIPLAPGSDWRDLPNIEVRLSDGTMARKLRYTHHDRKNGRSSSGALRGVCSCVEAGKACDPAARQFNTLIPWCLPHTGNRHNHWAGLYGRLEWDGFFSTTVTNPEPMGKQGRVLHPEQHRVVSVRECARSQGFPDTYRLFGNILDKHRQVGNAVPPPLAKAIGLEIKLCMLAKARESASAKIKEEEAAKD

Turning to `CCc1c(C#N)c(SC(C(N)=O)c2ccccc2)nc(N(C)CC(=O)N(C)CCCO)c1C#N` (stereo not shown) [Example 665, 2-((6-((2-amino-2-oxo-1-phenylethyl)thio)-3,5-dicyano-4-ethylpyridin-2-yl)(methyl)amino)-N-(3-hydroxypropyl)-N-methylacetamide], on DNMT1 (setting [2]), the “DNMT1 BioChemical (pIC50 category)” value is recorded as “D (Category D: ≥6.5)”. In experiment [1], the EC50 is less than 316 nM.

As to `CCc1c(C#N)c(S[C@H](C(N)=O)c2ccccc2)nc(N2CC[C@@H](N)[C@@H](F)C2)c1C#N` [Example 531, (S)-2-((6-((3S,4R)-4-amino-3-fluoropiperidin-1-yl)-3,5-dicyano-4-ethylpyridin-2-yl)thio)-2-phenylacetamide • (0.67)2,2,2-trifluoroacetate • (0.33)methanesulfonate], the IC50 is 1000 to 31600 nM at DNMT1 (setting [3]); ≥ 1000 nM and 1580 nM on DNMT1 (setting [4]). In addition, the EC50 in experiment [1] is less than 316 nM.

For the compound `CCc1c(C#N)c(SC(C(N)=O)c2ccccc2)nc(N2CCC(NC(=O)CO)CC2)c1C#N` (stereo not shown) [Example 286, N-(1-(6-((2-Amino-2-oxo-1-phenylethyl)thio)-3,5-dicyano-4-ethylpyridin-2-yl)piperidin-4-yl)-2-hydroxyacetamide], the “DNMT1 BioChemical (pIC50 category)” value at DNMT1 (setting [2]) is on record as “D (Category D: ≥6.5)”. Besides, the IC50 at DNMT1 (setting [4]) is 316 to 1000 nM and 316 nM. The EC50 in experiment [1] is 1000 to 31600 nM.

For `CCc1c(C#N)c(C)nc(SCc2ccc(CNC(C)=O)cc2)c1C#N` [Example 284, N-(4-(((3,5-Dicyano-4-ethyl-6-methylpyridin-2-yl)thio)methyl)benzyl)acetamide], on DNMT1 (setting [3]), the IC50 was 316 to 1000 nM. Further, the EC50 in experiment [1] was more than 31600 nM.

As to `CCc1c(C#N)c(SC(C(N)=O)c2ccccc2)nc(N2CCO[C@@H](CNC(=O)C(C)(C)N)C2)c1C#N` (stereo partly drawn) [Example 575, 2-amino-N-(((2S)-4-(6-((2-amino-2-oxo-1-phenylethyl)thio)-3,5-dicyano-4-ethylpyridin-2-yl)morpholin-2-yl)methyl)-2-methylpropanamide], the “DNMT1 BioChemical (pIC50 category)” value at DNMT1 (setting [2]) is recorded as “D (Category D: ≥6.5)”. Moreover, the EC50 in experiment [1] is less than 316 nM.

On to `CCc1c(C#N)c(SC(C(N)=O)c2ccccc2)nc(N(C)Cc2cc[nH]n2)c1C#N` (stereo not shown) [Example 356, 2-((6-(((1H-Pyrazol-3-yl)methyl)(methyl)amino)-3,5-dicyano-4-ethylpyridin-2-yl)thio)-2-phenylacetamide], for which the “DNMT1 BioChemical (pIC50 category)” value on DNMT1 (setting [2]) is on record as “D (Category D: ≥6.5)”. In addition, in experiment [1], the EC50 was 316 to 1000 nM.

`CCc1c(C#N)c(SC(C(N)=O)c2ccccc2)nc(N2CCC(N(C)C3CCC3)CC2)c1C#N` (stereo not shown) [Example 454, 2-((3,5-dicyano-6-(4-(cyclobutyl(methyl)amino)piperidin-1-yl)-4-ethylpyridin-2-yl)thio)-2-phenylacetamide]: the “DNMT1 BioChemical (pIC50 category)” value on DNMT1 (setting [2]) is recorded as “D (Category D: ≥6.5)”. Further, the EC50 in experiment [1] is less than 316 nM.

Consider `CCc1c(C#N)c(SCc2ccc(N(C)S(C)(=O)=O)cc2)nc(N2CCC(N3CCCC3)CC2)c1C#N` [Example 582, N-(4-(((3,5-dicyano-4-ethyl-6-(4-(pyrrolidin-1-yl)piperidin-1-yl)pyridin-2-yl)thio)methyl)phenyl)-N-methylmethanesulfonamide], for which the “DNMT1 BioChemical (pIC50 category)” value on DNMT1 (setting [2]) is on record as “D (Category D: ≥6.5)”. The EC50 in experiment [1] was less than 316 nM.

On to `CCc1nc(SC(C(N)=O)c2ccccc2)c(C#N)c(CC)c1C#N` (stereo not shown) [Example 351], for which the IC50 at DNMT1 (setting [3]) was 316 to 1000 nM. For the same compound, the EC50 in experiment [1] was more than 31600 nM.

As to `CCc1c(C#N)c(S[C@@H](C(N)=O)c2ccccc2)nc(N2CCOCC2)c1C#N` [Example 65, (R)-2-[(3,5-Dicyano-4-ethyl-6-morpholino-2-pyridyl)sulfanyl]-2-phenyl-acetamide], at DNMT1 (setting [3]), the IC50 is 316 to 1000 nM. Besides, in experiment [1], the EC50 was 1000 to 31600 nM.

`CCc1c(C#N)c(SCc2ccc(NC(C)=O)cc2)nc(N2CCCN(C)CC2)c1C#N` [Example 298, N-(4-(((3,5-Dicyano-4-ethyl-6-(4-methyl-1,4-diazepan-1-yl)pyridin-2-yl)thio)methyl)phenyl)acetamide]: the “DNMT1 BioChemical (pIC50 category)” value at DNMT1 (setting [2]) is reported as “D (Category D: ≥6.5)”. The EC50 in experiment [1] was less than 316 nM.

For the compound `COc1c(C#N)c(SC(C(N)=O)c2ccccc2)nc(N2CCCN(CCO)CC2)c1C#N` (stereo not shown) [Example 142, 2-((3,5-Dicyano-6-(4-(2-hydroxyethyl)-1,4-diazepan-1-yl)-4-methoxypyridin-2-yl)thio)-2-phenylacetamide], the “DNMT1 BioChemical (pIC50 category)” value on DNMT1 (setting [2]) is “D (Category D: ≥6.5)”. In addition, the EC50 in experiment [1] was 316 to 1000 nM.

In the case of `CCc1c(C#N)c(S[C@@H](C(N)=O)c2ccccc2)nc(N2CCC(N(C)C)CC2)c1C#N` [Example 406, (R)-2-((3,5-Dicyano-6-(4-(dimethylamino)piperidin-1-yl)-4-ethylpyridin-2-yl)thio)-2-phenylacetamide], the “DNMT1 BioChemical (pIC50 category)” value on DNMT1 (setting [2]) is “D (Category D: ≥6.5)”. The EC50 in experiment [1] is less than 316 nM.

As for `CCc1c(C#N)c(SC(C(N)=O)c2ccccc2)nc(N2CCCC(CN(C)C)C2)c1C#N` (stereo not shown) [Example 565, 2-((3,5-dicyano-6-(3-((dimethylamino)methyl)piperidin-1-yl)-4-ethylpyridin-2-yl)thio)-2-phenylacetamide], the IC50 on DNMT1 (setting [3]) is less than 316 nM. For the same compound, in experiment [1], the EC50 was less than 316 nM.

In the case of `CCc1c(C#N)c(SCc2cnn(CC(N)=O)c2)nc(N(C)C)c1C#N` [Example 285, 2-(4-(((3,5-Dicyano-6-(dimethylamino)-4-ethylpyridin-2-yl)thio)methyl)-1H-pyrazol-1-yl)acetamide], the IC50 at DNMT1 (setting [3]) was 316 to 1000 nM. Further, the EC50 in experiment [1] is 1000 to 31600 nM.

For the compound `CCc1c(C#N)c(SC(C(N)=O)c2ccccc2)nc(N2CC(OC(N)=O)C2)c1C#N` (stereo not shown) [Example 259, 1-(6-((2-Amino-2-oxo-1-phenylethylthio-3,5-dicyano-4-ethylpyridin-2-yl)azetidin-3-yl carbamate], at DNMT1 (setting [2]), the “DNMT1 BioChemical (pIC50 category)” value is listed as “D (Category D: ≥6.5)”. Also, in experiment [1], the EC50 is 316 to 1000 nM.

With `CCc1c(C#N)c(SCc2ccc(COC(C)=O)cc2)nc(N2CCCN(C)CC2)c1C#N` [Example 82, 4-(((3,5-Dicyano-4-ethyl-6-(4-methyl-1,4-diazepan-1-yl)pyridin-2-yl)thio)methyl)benzyl acetate], the IC50 on DNMT1 (setting [3]) and on DNMT1 (setting [4]) was 316 to 1000 nM throughout. Moreover, in experiment [1], the EC50 was 1000 to 31600 nM.

In the case of `CCc1c(C#N)c(SC(C(N)=O)c2cc(C)ccn2)nc(N2CCCN(C)CC2)c1C#N` (stereo not shown) [Example 208], the IC50 at DNMT1 (setting [3]) is 316 to 1000 nM. Further, the EC50 in experiment [1] is 316 to 1000 nM.

As to `CCc1c(C#N)c(SC(C(N)=O)c2ccccc2)nc(N2CCC(NCC(C)(C)C)CC2)c1C#N` (stereo not shown) [Example 550, 2-((3,5-dicyano-4-ethyl-6-(4-(neopentylamino)piperidin-1-yl)pyridin-2-yl)thio)-2-phenylacetamide], the “DNMT1 BioChemical (pIC50 category)” value at DNMT1 (setting [2]) is recorded as “D (Category D: ≥6.5)”. For the same compound, in experiment [1], the EC50 is less than 316 nM.

In the case of `CCc1c(C#N)c(SC(C(N)=O)c2ccccc2)nc(N(C)CCN2[C@H](C)CC[C@H]2C)c1C#N` (stereo partly drawn) [Example 485, 2-((3,5-dicyano-6-((2-((2R,5R)-2,5-dimethylpyrrolidin-1-yl)ethyl)(methyl)amino)-4-ethylpyridin-2-yl)thio)-2-phenylacetamide], on DNMT1 (setting [2]), the “DNMT1 BioChemical (pIC50 category)” value is given as “D (Category D: ≥6.5)”. In experiment [1], the EC50 was less than 316 nM.

For the compound `CCc1c(C#N)c(SCc2ccc(N(C)S(C)(=O)=O)cc2)nc(N(C)CCNCCF)c1C#N` [Example 500], at DNMT1 (setting [2]), the “DNMT1 BioChemical (pIC50 category)” value is “D (Category D: ≥6.5)”. For the same compound, the EC50 in experiment [1] is 1000 to 31600 nM.

With `CC(C)(N)C(=O)NC1CCN(c2nc(SC(C(N)=O)c3ccccc3)c(C#N)c(C3CC3)c2C#N)CC1` (stereo not shown) [Example 374, 2-Amino-N-(1-(6-((2-amino-2-oxo-1-phenylethyl)thio)-3,5-dicyano-4-cyclopropylpyridin-2-yl)piperidin-4-yl)-2-methylpropanamide], the “DNMT1 BioChemical (pIC50 category)” value on DNMT1 (setting [2]) is “D (Category D: ≥6.5)”. Also, the EC50 in experiment [1] was 316 to 1000 nM.

As for `CCc1c(C#N)c(SC(C(N)=O)c2ccccc2)nc(N2CCC(N)(C(N)=O)CC2)c1C#N` (stereo not shown) [Example 251], at DNMT1 (setting [3]), the IC50 is 1000 to 31600 nM. Further, in experiment [1], the EC50 is 1000 to 31600 nM.

Regarding `CCc1c(C#N)c(SC(C(N)=O)c2ccc(CC(N)=O)cc2)nc(N2CCCN(C)CC2)c1C#N` (stereo not shown) [Example 400, 2-(4-(2-Amino-2-oxoethyl)phenyl)-2-(3,5-dicyano-4-ethyl-6-(4-methyl-1,4-diazepan-1-yl)pyridin-2-ylthio)acetamide], the “DNMT1 BioChemical (pIC50 category)” value on DNMT1 (setting [2]) is recorded as “D (Category D: ≥6.5)”. Besides, in experiment [1], the EC50 was 1000 to 31600 nM.

For `CCc1c(C#N)c(S[C@@H](C(N)=O)c2ccccc2)nc(N2CCC(O)(CN)C2)c1C#N.Cl` (stereo in doubt) [Example 423, (R)-2-((6-((R)-3-(aminomethyl)-3-hydroxypyrrolidin-1-yl)-3,5-dicyano-4-ethylpyridin-2-yl)thio)-2-phenylacetamide hydrochloride], the “DNMT1 BioChemical (pIC50 category)” value at DNMT1 (setting [2]) is on record as “D (Category D: ≥6.5)”. The “EPC ELISA (pEC50 category)” value in experiment [1] is listed as “C (Category C: 6.0 ≤ x < 6.5)”.

With `N#Cc1c(SC(C(N)=O)c2ccccc2)nc(N2CC(NC(=O)[C@@H](N)CO)C2)c(C#N)c1C1CC1` (stereo partly drawn) [Example 611, (2S)-2-amino-N-(1-(6-((2-amino-2-oxo-1-phenylethyl)thio)-3,5-dicyano-4-cyclopropylpyridin-2-yl)azetidin-3-yl)-3-hydroxypropanamide], at DNMT1 (setting [2]), the “DNMT1 BioChemical (pIC50 category)” value is “D (Category D: ≥6.5)”. Also, the EC50 in experiment [1] is 1000 to 31600 nM.

As to `CCc1c(C#N)c(SCc2ccc(CNC(=O)CN)cc2)nc(N2CCCN(C)CC2)c1C#N` [Example 80, 2-Amino-N-(4-(((3,5-dicyano-4-ethyl-6-(4-methyl-1,4-diazepan-1-yl)pyridin-2-yl)thio)methyl)benzyl)acetamide], the “DNMT1 BioChemical (pIC50 category)” value at DNMT1 (setting [2]) is reported as “D (Category D: ≥6.5)”. The “average pIC50 against DNMT1” value at DNMT1 (breaklight assay and/or SPA assay, repeated experimental runs) is more than 6.5. The EC50 in experiment [1] was 316 to 1000 nM.
